In patent publication US8613914B2, “Peptidomimetic sulfamide compounds and antiviral uses thereof” (Novartis AG, priority 2009, dated 2013):

biological target: HCV NS3-4A serine protease (full-length NS3-4A protein) (Hepatitis C virus genotype 1a (isolate 1) (HCV), UniProt P26664); assay: HCV NS3-4A protease assay; type: biochemical, HCV genotype 1a; conditions: strain HCV-1, fluorogenic peptide substrate, read-out: Protease assay Ex. 12 IC50
Description: The inhibitory activity of certain compounds of Table A against HCV NS3-4A serine protease is determined in a homogenous assay using the full-length NS3-4A protein (genotype 1a, strain HCV-1) and a commercially available internally-quenched fluorogenic peptide substrate as described by Taliani, M., et al. 1996 Anal. Biochem. 240:60-67, which is incorporated by reference in its entirety.

HCV NS3-4A serine protease (full-length NS3-4A protein), sequence (P26664 1027-1657): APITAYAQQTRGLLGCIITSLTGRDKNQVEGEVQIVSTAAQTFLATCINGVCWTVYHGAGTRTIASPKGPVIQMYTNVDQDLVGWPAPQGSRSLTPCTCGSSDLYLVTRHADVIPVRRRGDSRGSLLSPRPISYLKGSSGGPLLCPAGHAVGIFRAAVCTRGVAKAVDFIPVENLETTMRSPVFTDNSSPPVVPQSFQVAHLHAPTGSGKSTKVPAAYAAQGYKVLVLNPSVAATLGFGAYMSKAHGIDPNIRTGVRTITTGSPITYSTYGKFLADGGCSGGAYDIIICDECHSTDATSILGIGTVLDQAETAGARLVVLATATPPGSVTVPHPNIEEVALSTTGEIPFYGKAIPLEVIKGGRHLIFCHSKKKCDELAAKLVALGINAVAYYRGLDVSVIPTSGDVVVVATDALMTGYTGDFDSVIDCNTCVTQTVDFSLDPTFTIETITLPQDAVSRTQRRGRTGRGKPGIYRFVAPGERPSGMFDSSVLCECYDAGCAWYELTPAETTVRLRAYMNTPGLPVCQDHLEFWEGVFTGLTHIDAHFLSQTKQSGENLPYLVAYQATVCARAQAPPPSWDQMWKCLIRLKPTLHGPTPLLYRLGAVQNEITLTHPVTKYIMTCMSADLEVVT
HCV NS3-4A serine protease (full-length NS3-4A protein), sequence (P26664 1658-1711 partner): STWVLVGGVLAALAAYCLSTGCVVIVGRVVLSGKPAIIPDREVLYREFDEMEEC

Point of comparison: C=C[C@@H]1C[C@]1(NC(=O)[C@@H]1C[C@@]2(CN1C(=O)[C@@H](NC(=O)[C@@H](NC(=O)[C@@H]1CCCN1C(C)C)C(C)(C)C)C(C)(C)C)C(C)(C)C21CCC1)C(=O)NS(=O)(=O)N1CCCC1 [Compound 11, (5R,8S)-7-[(2S)-2-{[(2S)-2-({[(2S)-1-isopropylpyrrolidin-2-yl]carbonyl}amino)-3,3-dimethylbutanoyl]amino}-3,3-dimethylbutanoyl]-10,10-dimethyl-N-{(1R,2S)-1-[(pyrrolidin-1-ylsulfonyl)carbamoyl]-2-vinylcyclopropyl}-7-azadispiro[3.0.4.1]decane-8-carboxamide], IC50 20 nM. Against it:
- C=C[C@@H]1C[C@]1(NC(=O)[C@@H]1C[C@@]2(CN1C(=O)[C@@H](NC(=O)OC(C)(C)C)C(C)(C)C)C(C)(C)C21CCC1)C(=O)NS(=O)(=O)N1CCCC1 [Compound 1, tert-butyl [(1S)-1-{[(5R,8S)-10,10-dimethyl-8-({(1R,2S)-1-[(pyrrolidin-1-ylsulfonyl)carbamoyl]-2-vinylcyclopropyl}carbamoyl)-7-azadispiro[3.0.4.1]dec-7-yl]carbonyl}-2,2-dimethylpropyl]carbamate] — 20-fold higher, 400 nM
- C=C[C@@H]1C[C@]1(NC(=O)[C@@H]1C[C@@]2(CN1C(=O)[C@@H](NC(=O)[C@@H](NC(=O)OC(C)(C)C)C(C)(C)C)C(C)(C)C)C(C)(C)C21CCC1)C(=O)NS(=O)(=O)N1CCCC1 [Compound 2, tert-butyl [(1S)-1-{[(1S)-1-{[(5R,8S)-10,10-dimethyl-8-({(1R,2S)-1-[(pyrrolidin-1-ylsulfonyl)carbamoyl]-2-vinylcyclopropyl}carbamoyl)-7-azadispiro[3.0.4.1]dec-7-yl]carbonyl}-2,2-dimethylpropyl]carbamoyl}-2,2-dimethylpropyl]carbamate] — 38-fold higher, 750 nM
- C=C[C@@H]1C[C@]1(NC(=O)[C@@H]1C[C@@]2(CN1C(=O)[C@@H](NC(=O)[C@@H](NC(=O)[C@@H]1CCCCN1C(C)C)C(C)(C)C)C(C)(C)C)C(C)(C)C21CCC1)C(=O)NS(=O)(=O)N1CCCC1 [Compound 3, (5R,8S)-7-[(2S)-2-{[(2S)-2-({[(2S)-1-isopropylpiperidin-2-yl]carbonyl}amino)-3,3-dimethylbutanoyl]amino}-3,3-dimethylbutanoyl]-10,10-dimethyl-N-{(1R,2S)-1-[(pyrrolidin-1-ylsulfonyl)carbamoyl]-2-vinylcyclopropyl}-7-azadispiro[3.0.4.1]decane-8-carboxamide] — 3.3-fold lower, 6 nM
- C=C[C@@H]1C[C@]1(NC(=O)[C@@H]1C[C@@]2(CN1C(=O)[C@@H](NC(=O)[C@@H](NC(=O)[C@@H]1CCCN(CC)C1)C(C)(C)C)C(C)(C)C)C(C)(C)C21CCC1)C(=O)NS(=O)(=O)N1CCCC1 [Compound 4, (5R,8S)-7-[(2S)-2-{[(2S)-2-({[(3R)-1-ethylpiperidin-3-yl]carbonyl}amino)-3,3-dimethylbutanoyl]amino}-3,3-dimethylbutanoyl]-10,10-dimethyl-N-{(1R,2S)-1-[(pyrrolidin-1-ylsulfonyl)carbamoyl]-2-vinylcyclopropyl}-7-azadispiro[3.0.4.1]decane-8-carboxamide] — 1.8-fold higher, 35 nM
- C=C[C@@H]1C[C@]1(NC(=O)[C@@H]1C[C@@]2(CN1C(=O)[C@@H](NC(=O)[C@@H](NC(=O)OC(C)(C)C)C(C)(C)C)C(C)(C)C)C(C)(C)C21CCC1)C(=O)NS(=O)(=O)N1CCOCC1 [Compound 5, tert-butyl [(1S)-1-{[(1S)-1-{[(5R,8S)-10,10-dimethyl-8-({(1R,2S)-1-[(morpholin-4-ylsulfonyl)carbamoyl]-2-vinylcyclopropyl}carbamoyl)-7-azadispiro[3.0.4.1]dec-7-yl]carbonyl}-2,2-dimethylpropyl]carbamoyl}-2,2-dimethylpropyl]carbamate] — 330-fold higher, 6650 nM
- C=C[C@@H]1C[C@]1(NC(=O)[C@@H]1C[C@@]2(CN1C(=O)[C@@H](NC(=O)[C@@H](NC(=O)[C@@H]1CCCCN1C(C)C)C(C)(C)C)C(C)(C)C)C(C)(C)C21CCC1)C(=O)NS(=O)(=O)N1CCOCC1 [Compound 6, (5R,8S)-7-[(2S)-2-{[(2S)-2-({[(2S)-1-isopropylpiperidin-2-yl]carbonyl}amino)-3,3-dimethylbutanoyl]amino}-3,3-dimethylbutanoyl]-10,10-dimethyl-N-{(1R,2S)-1-[(morpholin-4-ylsulfonyl)carbamoyl]-2-vinylcyclopropyl}-7-azadispiro[3.0.4.1]decane-8-carboxamide] — 2.2-fold higher, 45 nM
- C=C[C@@H]1C[C@]1(NC(=O)[C@@H]1C[C@@]2(CN1C(=O)[C@@H](NC(=O)[C@@H](NC(=O)[C@@H]1CCCN(CC)C1)C(C)(C)C)C(C)(C)C)C(C)(C)C21CCC1)C(=O)NS(=O)(=O)N1CCOCC1 [Compound 7, (5R,8S)-7-[(2S)-2-{[(2S)-2-({[(3R)-1-ethylpiperidin-3-yl]carbonyl}amino)-3,3-dimethylbutanoyl]amino}-3,3-dimethylbutanoyl]-10,10-dimethyl-N-{(1R,2S)-1-[(morpholin-4-ylsulfonyl)carbamoyl]-2-vinylcyclopropyl}-7-azadispiro[3.0.4.1]decane-8-carboxamide] — 22-fold higher, 450 nM
- C=C[C@@H]1C[C@]1(NC(=O)[C@@H]1C[C@@]2(CN1C(=O)[C@@H](NC(=O)[C@@H](NC(=O)[C@@H]1CCCCN1CCF)C(C)(C)C)C(C)(C)C)C(C)(C)C21CCC1)C(=O)NS(=O)(=O)N1CCOCC1 [Compound 8, (5R,8S)-7-[(2S)-2-{[(2S)-2-({[(2S)-1-(2-fluoroethyl)piperidin-2-yl]carbonyl}amino)-3,3-dimethylbutanoyl]amino}-3,3-dimethylbutanoyl]-10,10-dimethyl-N-{(1R,2S)-1-[(morpholin-4-ylsulfonyl)carbamoyl]-2-vinylcyclopropyl}-7-azadispiro[3.0.4.1]decane-8-carboxamide] — 15-fold higher, 300 nM
- C=C[C@@H]1C[C@]1(NC(=O)[C@@H]1C[C@@]2(CN1C(=O)[C@@H](NC(=O)[C@@H](N1CCCC1=O)C(C)(C)C)C(C)(C)C)C(C)(C)C21CCC1)C(=O)NS(=O)(=O)N1CCCC1 [Compound 9, (5R,8S)-7-[(2S)-2-{[(2S)-3,3-dimethyl-2-(2-oxopyrrolidin-1-yl)butanoyl]amino}-3,3-dimethylbutanoyl]-10,10-dimethyl-N-{(1R,2S)-1-[(pyrrolidin-1-ylsulfonyl)carbamoyl]-2-vinylcyclopropyl}-7-azadispiro[3.0.4.1]decane-8-carboxamide] — 5-fold higher, 100 nM
- C=C[C@@H]1C[C@]1(NC(=O)[C@@H]1C[C@@]2(CN1C(=O)[C@@H](NC(=O)[C@@H](NC(=O)C(C)(C)N1CCCC1)C(C)(C)C)C(C)(C)C)C(C)(C)C21CCC1)C(=O)NS(=O)(=O)N1CCCC1 [Compound 10, (5R,8S)-7-[(2S)-2-({(2S)-3,3-dimethyl-2-[(2-methyl-2-pyrrolidin-1-ylpropanoyl)amino]butanoyl}amino)-3,3-dimethylbutanoyl]-10,10-dimethyl-N-{(1R,2S)-1-[(pyrrolidin-1-ylsulfonyl)carbamoyl]-2-vinylcyclopropyl}-7-azadispiro[3.0.4.1]decane-8-carboxamide] — 3.2-fold higher, 65 nM
- C=C[C@@H]1C[C@]1(NC(=O)[C@@H]1C[C@@]2(CN1C(=O)[C@@H](NC(=O)[C@@H](NC(=O)[C@@H]1CCN1C(C)C)C(C)(C)C)C(C)(C)C)C(C)(C)C21CCC1)C(=O)NS(=O)(=O)N1CCCC1 [Compound 12, (5R,8S)-7-[(2S)-2-{[(2S)-2-({[(2S)-1-isopropylazetidin-2-yl]carbonyl}amino)-3,3-dimethylbutanoyl]amino}-3,3-dimethylbutanoyl]-10,10-dimethyl-N-{(1R,2S)-1-[(pyrrolidin-1-ylsulfonyl)carbamoyl]-2-vinylcyclopropyl}-7-azadispiro[3.0.4.1]decane-8-carboxamide] — 2-fold higher, 40 nM
- C=C[C@@H]1C[C@]1(NC(=O)[C@@H]1C[C@@]2(CN1C(=O)[C@@H](NC(=O)[C@@H](NC(=O)[C@@H]1CCCCN1C(C)C)C1CCCCC1)C(C)(C)C)C(C)(C)C21CCC1)C(=O)NS(=O)(=O)N1CCCC1 [Compound 13, (5R,8S)-7-[(2S)-2-{[(2S)-2-cyclohexyl-2-({[(2S)-1-isopropylpiperidin-2-yl]carbonyl}amino)acetyl]amino}-3,3-dimethylbutanoyl]-10,10-dimethyl-N-{(1R,2S)-1-[(pyrrolidin-1-ylsulfonyl)carbamoyl]-2-vinylcyclopropyl}-7-azadispiro[3.0.4.1]decane-8-carboxamide] — 6.7-fold lower, 3 nM
- C=C[C@@H]1C[C@]1(NC(=O)[C@@H]1C[C@@]2(CN1C(=O)[C@@H](NC(=O)[C@@H](NC(=O)C(C)(C)N1CCCC1)C1CCCCC1)C(C)(C)C)C(C)(C)C21CCC1)C(=O)NS(=O)(=O)N1CCCC1 [Compound 14, (5R,8S)-7-[(2S)-2-({(2S)-2-cyclohexyl-2-[(2-methyl-2-pyrrolidin-1-ylpropanoyl)amino]acetyl}amino)-3,3-dimethylbutanoyl]-10,10-dimethyl-N-{(1R,2S)-1-[(pyrrolidin-1-ylsulfonyl)carbamoyl]-2-vinylcyclopropyl}-7-azadispiro[3.0.4.1]decane-8-carboxamide] — 6.7-fold lower, 3 nM
- C=C[C@@H]1C[C@]1(NC(=O)[C@@H]1C[C@@]2(CN1C(=O)[C@@H](NC(=O)[C@@H](NC(=O)[C@@H]1CCCN1C(C)C)C1CCCCC1)C(C)(C)C)C(C)(C)C21CCC1)C(=O)NS(=O)(=O)N1CCCC1 [Compound 15, (5R,8S)-7-[(2S)-2-{[(2S)-2-cyclohexyl-2-({[(2S)-1-isopropylpyrrolidin-2-yl]carbonyl}amino)acetyl]amino}-3,3-dimethylbutanoyl]-10,10-dimethyl-N-{(1R,2S)-1-[(pyrrolidin-1-ylsulfonyl)carbamoyl]-2-vinylcyclopropyl}-7-azadispiro[3.0.4.1]decane-8-carboxamide] — 10-fold lower, 2 nM
